This data set in a line: Henry solubility constant Hcp at 298.15 K (mol/(m3 Pa)). The following applies: reference: Schwardt et al. (2021).

Structures are written as SMILES.

`Clc1ccccc1` [chlorobenzene]: the “Henry solubility constant Hcp” value came out at 0.002.
As to `Cc1ccc(C)cc1` [1,4-dimethylbenzene], the “Henry solubility constant Hcp” value came out at 0.001.
`CCc1ccccc1` [ethylbenzene]: the “Henry solubility constant Hcp” value worked out at 0.0013.
For `ClC(Cl)=C(Cl)Cl` [tetrachloroethene], the “Henry solubility constant Hcp” value amounted to 0.00058.
Take `C=CCl` [chloroethene]: the “Henry solubility constant Hcp” value amounted to 0.00039.
Take `ClCC(Cl)(Cl)Cl` [1,1,1,2-tetrachloroethane]: the “Henry solubility constant Hcp” value amounted to 0.0045.
Take `C=C(Cl)Cl` [1,1-dichloroethene]: the “Henry solubility constant Hcp” value was 0.0004.
As for `ClCC(Cl)Cl` [1,1,2-trichloroethane], the “Henry solubility constant Hcp” value came to 0.0073.
On to `ClC=C(Cl)Cl` [trichloroethene], for which the “Henry solubility constant Hcp” value was 0.001.

These data come from Sander's compilation of Henry's law constants (doi:10.1016/j.chemosphere.2021.129858).
